The results in this text go back to patent publication US20040052754A1, “Complexes of phosphate derivatives” (priority 2000, published 2004).

The nature of series [1]: Vapour pressure osmometry (dissociation in water). The class given is physicochemical. As to conditions: arbitrary scale. From the text:
A vapour pressure osmometer was used to investigate the dissociation of the di-sodium alpha tocopheryl phosphate N-lauryl imino dipropionate complex by comparing the lowering of the equilibrium temperature to give an identical partial pressure of water vapour around a drop of pure water versus various solutions as an indication of the relative moles of solute.
N-lauryl imino dipropionate alone gives three ions and at 0.05M the effect was 38 units. If the complex was readily dissociated, then the additional tocopheryl phosphate would be expected to increase the effect in the ratio 3:5 by the addition of the charged amino group as a cation and tocopheryl hydrogen phosphate anion.

Series [2] concerns Human cadaver skin. As to the kind of experiment: In vitro human skin penetration study. It is filed as in vitro ADME. Particulars: analyte tocopheryl acetate. As to the method:
DSS was similar in TP and […] content, however, unlike TPC, DSS existed as the mixed sodium salts. A slurry of 6.25 w/w % of 80% DSS in 93.75 w/w % of the 95/5-water/ethanol mixture iwa prepared. Tocopheryl acetate was obtained from Roche/BASF. 5.0 w/w % of TA was dispersed in 95.0 w/w % of 95/5 water/ethanol mixture. The test formulations were evaluated in in vitro human skin penetration studies. […] The tests were conducted by […] International (San Diego, Calif.). Human cadaver skin was obtained and prepared. […] Receptor solutions were collected over 48 hours at pre-selected time intervals. After 48 hours the skin surface was washed with isopropyl alcohol, and the skin was collected and split into epidermis and dermis. The skin sections were extracted with isopropyl alcohol.

In series [1] (0.05M in water), `CCCCCCCCCCCCN(CCC(=O)O)CCC(=O)O` [N-lauryl imino dipropionate] returned an Osmometer effect of 38 units.
Regarding `CC(=O)Oc1c(C)c(C)c2c(c1C)CCC(C)(CCC[C@H](C)CCC[C@H](C)CCCC(C)C)O2` (stereo partly drawn) [TA, Tocopheryl acetate], the “Dermis/Epidermis Ratio, Tocopheryl Acetate” value in series [2] (48 hours) is given as 0.20. Besides, in series [2] (dermis after 48 hours, 5 μL/cm^2 topical dose), the “Percent distribution recovered: Tocopheryl Acetate, Dermis” value is listed as 1.39 wt/wt %. The “Percent distribution recovered: Tocopheryl Acetate, Epidermis” value in series [2] (epidermis after 48 hours, 5 μL/cm^2 topical dose) stood at 7.13 wt/wt %. Further, in series [2] (surface wash after 48 hours, 5 μL/cm^2 topical dose), the “Percent distribution recovered: Tocopheryl Acetate, Surface Wash” value was determined as 91.48 wt/wt %.
Regarding `[Cl-].[Na+]` [sodium chloride], the Osmometer effect in series [1] (0.1M in water) came to 29 unit.
